Measured values as given in patent US20220054465A1, “(PYRIDIN-2-YL)AMINE DERIVATIVES AS TGF-BETA R1 (ALK5) INHIBITORS FOR THE TREATMENT OF CANCER” (Nexys Therapeutics, Inc., priority 2018, published 2022).

Tested on: HEK-Blue TGFβ cell
Assay: HEK-Blue TGFβ cellular reporter gene assay (SEAP readout)
Assay type: cell-based
Details: HEK-Blue TGFβ cells stimulated with TGF-β, 22-23 h incubation, SEAP read at 630 nm
Procedure: HEK-Blue TGFβ Cellular Reporter Gene Assay:
HEK-Blue TGFβ cell was purchased from Invivogen. Cell suspension of 2.5×10^5 cells/ml was prepared using Test Medium (DMEM containing 0.5% v/v heat-inactivated FBS). TGF-β working solution (6 ng/ml) was obtained through diluting TGF-β stock solution (10 μg/ml) by Test Medium before use. Eight different concentrations of all compounds were obtained by 3× gradient dilution method using TGF-β working solution. Add 100 μl of Test Medium (Vehicle) or test article or TGF-β working solution per well of a flat-bottom 96-well plate. Add 100 μl of HEK-Blue TGF-β cell suspension per well. Incubate the plate at 37° C. in a CO2 incubator for 22-23 h. Add 150 μl of resuspended QUANTI-Blue per well of a new flat-bottom 96-well plate. Add 30 μl of induced HEK-Blue TGF-β cells supernatant. Avoid pipetting at the bottom of wells. Incubate the plate at 37° C. incubator for 30-40 min. Determine secreted embryonic alkaline phosphatase (SEAP) levels using a spectrophotometer at 630 nm.
The inhibition was calculated using the equation: […]

SMILES: Cc1cc(Oc2ccnc(Nc3ccc(CCC(=O)O)cc3)c2)c(-c2ccccn2)nc1C [Example 2]
- IC50: 230 nM

SMILES: Cc1cc(Oc2ccnc(Nc3cncc(CCC(=O)O)c3)c2)c(-c2ccccn2)nc1C [Example 3]
- IC50: > 10000 nM

SMILES: Cc1cc(Oc2ccnc(Nc3ccc(F)c(CCC(=O)O)c3)c2)c(-c2ccccn2)nc1C [Example 4]
- IC50: 200 nM

SMILES: Cc1cc(Oc2ccnc(Nc3ccc(Cl)c(CCC(=O)O)c3)c2)c(-c2ccccn2)nc1C [Example 5]
- IC50: 150 nM

SMILES: Cc1cc(Oc2ccnc(Nc3cc(CCC(=O)O)ccc3F)c2)c(-c2ccccn2)nc1C [Example 6]
- IC50: 160 nM

SMILES: Cc1cc(Oc2ccnc(Nc3cccc(CCC(=O)O)n3)c2)c(-c2ccccn2)nc1C [Example 7]
- IC50: 170 nM

SMILES: Cc1cc(Oc2ccnc(Nc3cc(CCC(=O)O)ccn3)c2)c(-c2ccccn2)nc1C [Example 8]
- IC50: 590 nM

SMILES: Cc1cc(Oc2ccnc(Nc3ccnc(CCC(=O)O)c3)c2)c(-c2ccccn2)nc1C [Example 9]
- IC50: > 10000 nM

SMILES: Cc1cc(Oc2ccnc(Nc3cccc(CCC(=O)O)c3F)c2)c(-c2ccccn2)nc1C [Example 10]
- IC50: 220 nM

SMILES: Cc1cc(Oc2ccnc(Nc3cccc(-c4nnn[nH]4)c3)c2)c(-c2ccccn2)nc1C [Example 13]
- IC50: 1080 nM

SMILES: Cc1cc(Oc2ccnc(Nc3ccc(-c4nnn[nH]4)cc3)c2)c(-c2ccccn2)nc1C [Example 14]
- IC50: > 10000 nM

SMILES: Cc1cc(Oc2ccnc(Nc3ccc(Cc4nnn[nH]4)cc3)c2)c(-c2ccccn2)nc1C [Example 15]
- IC50: 1840 nM

SMILES: Cc1cc(Oc2ccnc(Nc3cccc(C(C)(C)c4nnn[nH]4)c3)c2)c(-c2ccccn2)nc1C [Example 18]
- IC50: 180 nM

SMILES: Cc1cc(Oc2ccnc(Nc3cc(CCc4nnn[nH]4)ccc3F)c2)c(-c2ccccn2)nc1C [Example 19]
- IC50: 160 nM

SMILES: Cc1cc(Oc2ccnc(Nc3ccc(Cl)c(CCc4nnn[nH]4)c3)c2)c(-c2ccccn2)nc1C [Example 20]
- IC50: 120 nM

SMILES: Cc1cc(Oc2ccnc(Nc3ccc(F)c(CCc4nnn[nH]4)c3)c2)c(-c2ccccn2)nc1C [Example 21]
- IC50: 160 nM

SMILES: Cc1cc(Oc2ccnc(Nc3ccc(C(F)(F)F)c(CCc4nn[nH]n4)c3)c2)c(-c2ccccn2)nc1C [Example 22]
- IC50: 230 nM

SMILES: Cc1cc(Oc2ccnc(Nc3cncc(CCc4nnn[nH]4)c3)c2)c(-c2ccccn2)nc1C [Example 23]
- IC50: > 10000 nM

SMILES: Cc1cc(Oc2ccnc(Nc3cc(CCc4nnn[nH]4)ccn3)c2)c(-c2ccccn2)nc1C [Example 24]
- IC50: 4530 nM

SMILES: Cc1cc(Oc2ccnc(Nc3cccc(CCc4nnn[nH]4)c3F)c2)c(-c2ccccn2)nc1C [Example 25]
- IC50: 640 nM

SMILES: Cc1cc(Oc2ccnc(Nc3cccc(CCc4nnn[nH]4)n3)c2)c(-c2ccccn2)nc1C [Example 26]
- IC50: 350 nM

SMILES: Cc1cc(Oc2ccnc(Nc3cccc(CCc4nnn[nH]4)c3C)c2)c(-c2ccccn2)nc1C [Example 27]
- IC50: 250 nM

SMILES: Cc1ccc(Nc2cc(Oc3cc(C)c(C)nc3-c3ccccn3)ccn2)cc1CCc1nnn[nH]1 [Example 28]
- IC50: 50 nM

SMILES: Cc1cc(CCc2nnn[nH]2)cc(Nc2cc(Oc3cc(C)c(C)nc3-c3ccccn3)ccn2)c1 [Example 29]
- IC50: 38 nM

SMILES: Cc1ccc(CCc2nnn[nH]2)cc1Nc1cc(Oc2cc(C)c(C)nc2-c2ccccn2)ccn1 [Example 30]
- IC50: 110 nM

SMILES: Cc1cc(Oc2ccnc(Nc3cnn(CCc4nn[nH]n4)c3)c2)c(-c2ccccn2)nc1C [Example 31]
- IC50: > 10000 nM

SMILES: Cc1cc(Oc2ccnc(Nc3ccn(CCc4nn[nH]n4)n3)c2)c(-c2ccccn2)nc1C [Example 32]
- IC50: 3710 nM

SMILES: Cc1cc(Oc2ccnc(Nc3cccc(OCc4nnn[nH]4)c3)c2)c(-c2ccccn2)nc1C [Example 33]
- IC50: 7310 nM

SMILES: Cc1cc(Oc2ccnc(Nc3cccc(Cc4nnn(CC(=O)O)n4)c3)c2)c(-c2ccccn2)nc1C [Example 34A, 2-(5-(3-((4-((5,6-dimethyl-[2,2′-bipyridin]-3-yl)oxy)pyridin-2-yl)amino)benzyl)-2H-tetrazol-2-yl)acetic acid]
- IC50: 12700 nM

SMILES: Cc1cc(Oc2ccnc(Nc3cccc(Cc4nnnn4CC(=O)O)c3)c2)c(-c2ccccn2)nc1C [Example 34B, 2-(5-(3-((4-((5,6-dimethyl-[2,2′-bipyridin]-3-yl)oxy)pyridin-2-yl)amino)benzyl)-1H-tetrazol-1-yl)acetic acid]
- IC50: > 10000 nM

SMILES: Cc1cc(Oc2ccnc(Nc3ccc(Cc4nnn(CC(=O)O)n4)cc3)c2)c(-c2ccccn2)nc1C [Example 35A]
- IC50: > 10000 nM

SMILES: Cc1cc(Oc2ccnc(Nc3ccc(Cc4nnnn4CC(=O)O)cc3)c2)c(-c2ccccn2)nc1C [Example 35B]
- IC50: > 10000 nM

SMILES: Cc1ccc(Oc2ccnc(Nc3ccc(F)c(CCC(=O)O)c3)c2)c(C)n1 [Example 36, 3-(5-((4-((2,6-dimethylpyridin-3-yl)oxy)pyridin-2-yl)amino)-2-fluorophenyl)propanoic acid]
- IC50: 180 nM

SMILES: Cc1ccc(Oc2ccnc(Nc3cccc(CCC(=O)O)n3)c2)c(C)n1 [Example 37]
- IC50: 200 nM

SMILES: Cc1ccc(Oc2ccnc(Nc3cncc(CCC(=O)O)c3)c2)c(C)n1 [Example 38]
- IC50: > 10000 nM

SMILES: Cc1ccc(Oc2ccnc(Nc3cc(CCC(=O)O)ccc3F)c2)c(C)n1 [Example 39]
- IC50: 260 nM

SMILES: Cc1ccc(Oc2ccnc(Nc3cccc(CCC(=O)O)c3F)c2)c(C)n1 [Example 40]
- IC50: 220 nM

SMILES: Cc1ccc(Oc2ccnc(Nc3ccc(Cl)c(CCC(=O)O)c3)c2)c(C)n1 [Example 41]
- IC50: 100 nM

SMILES: Cc1ccc(Oc2ccnc(Nc3cc(CCC(=O)O)ccn3)c2)c(C)n1 [Example 42]
- IC50: 140 nM

SMILES: Cc1ccc(Oc2ccnc(Nc3cccc(CCC(=O)O)c3)c2)c(C#N)n1 [Example 43]
- IC50: 3810 nM

SMILES: Cc1ccc(Oc2ccnc(Nc3cc(CCc4nn[nH]n4)ccc3F)c2)c(C)n1 [Example 45]
- IC50: 420 nM

SMILES: Cc1ccc(Oc2ccnc(Nc3cccc(CCc4nn[nH]n4)c3F)c2)c(C)n1 [Example 46]
- IC50: 520 nM

SMILES: Cc1ccc(Oc2ccnc(Nc3cccc(CCc4nn[nH]n4)n3)c2)c(C)n1 [Example 47]
- IC50: 310 nM

SMILES: Cc1ccc(Oc2ccnc(Nc3cc(CCc4nn[nH]n4)ccn3)c2)c(C)n1 [Example 48]
- IC50: 3030 nM

SMILES: Cc1ccc(Oc2ccnc(Nc3cncc(CCc4nn[nH]n4)c3)c2)c(C)n1 [Example 49]
- IC50: > 10000 nM

SMILES: Cc1ccc(Oc2ccnc(Nc3ccc(Cl)c(CCc4nn[nH]n4)c3)c2)c(C)n1 [Example 50]
- IC50: 630 nM

SMILES: Cc1ccc(Oc2ccnc(Nc3ccc(F)c(CCc4nn[nH]n4)c3)c2)c(C)n1 [Example 51]
- IC50: 270 nM

SMILES: Cc1ccc(Oc2ccnc(Nc3cccc(CCc4nn[nH]n4)c3)c2)c(-c2cccnc2)n1 [Example 53]
- IC50: 2950 nM

SMILES: Cc1ccc(Oc2ccnc(Nc3cccc(CCc4nn[nH]n4)c3)c2)c(-c2ccncc2)n1 [Example 54]
- IC50: 6390 nM

SMILES: Cc1ccc(Oc2ccnc(Nc3cccc(CCc4nn[nH]n4)c3)c2)c(-c2ccccn2)n1 [Example 55]
- IC50: 200 nM

SMILES: CCc1nc(C)ccc1Oc1ccnc(Nc2cccc(CCc3nn[nH]n3)c2)c1 [Example 56]
- IC50: 160 nM

SMILES: CCc1ccc(Oc2ccnc(Nc3cccc(CCc4nn[nH]n4)c3)c2)c(C)n1 [Example 57]
- IC50: 130 nM

SMILES: Cc1ccc(Oc2ccnc(Nc3cccc(CCc4nn[nH]n4)c3)c2)c(C(F)(F)F)n1 [Example 58]
- IC50: 150 nM

SMILES: Cc1nc2ccccc2cc1Oc1ccnc(Nc2cccc(CCc3nn[nH]n3)c2)c1 [Example 59]
- IC50: 450 nM

SMILES: Cc1ccc(Oc2ccnc(Nc3cccc(C(C)(C)c4nnn[nH]4)c3)c2)c(-c2ccccc2)n1 [Example 60]
- IC50: 79 nM

SMILES: Cc1nc(-c2ccccc2)ccc1Oc1ccnc(Nc2cccc(C(C)(C)c3nn[nH]n3)c2)c1 [Example 61]
- IC50: 190 nM

SMILES: Cc1ccc(Oc2ccnc(Nc3cccc(CCc4nn[nH]n4)c3)c2)c(-c2cnn(C)c2)n1 [Example 62]
- IC50: 2110 nM

SMILES: Cc1cccc(-c2nc(C)ccc2Oc2ccnc(Nc3cccc(CCc4nn[nH]n4)c3)c2)n1 [Example 63]
- IC50: 720 nM

SMILES: Cc1ccc(Oc2ccnc(Nc3cccc(CCc4nn[nH]n4)c3)c2)c(-c2ncccc2C)n1 [Example 64]
- IC50: 2600 nM

SMILES: Cc1ccc(Oc2ccnc(Nc3ccc(C(F)(F)F)c(CCc4nn[nH]n4)c3)c2)c(-c2ccccn2)n1 [Example 65]
- IC50: 520 nM

SMILES: Cc1ccc(Oc2ccnc(Nc3cccc(CCC(=O)O)c3)c2)c(-c2ccccc2)n1 [Example 66, 3-(3-((4-((6-methyl-2-phenylpyridin-3-yl)oxy)pyridin-2-yl)amino)phenyl)propanoic acid]
- IC50: 24 nM

SMILES: c1cc(CCc2nn[nH]n2)cc(Nc2cc(Oc3cn(C4CC4)nc3C3CCOCC3)ccn2)c1 [Example 67, N-(3-(2-(2H-tetrazol-5-yl)ethyl)phenyl)-4-((1-cyclopropyl-3-(tetrahydro-2H-pyran-4-yl)-1H-pyrazol-4-yl)oxy)pyridin-2-amine]
- IC50: 2650 nM

SMILES: O=C(O)CCc1cccc(Nc2cc(Oc3cn(C4CC4)nc3C3CCOCC3)ccn2)c1 [Example 68, 3-(3-((4-((1-cyclopropyl-3-(tetrahydro-2H-pyran-4-yl)-1H-pyrazol-4-yl)oxy)pyridin-2-yl)amino)phenyl)propanoic acid]
- IC50: 740 nM

SMILES: O=C(O)CCc1cc(Nc2cc(Oc3cn(C4CC4)nc3C3CCOCC3)ccn2)ccn1 [Example 69]
- IC50: > 10000 nM

SMILES: Cc1cc(Oc2ccnc(Nc3cccc(C(C)(C)C(=O)O)c3)c2)c(-c2ccccn2)nc1C [Example 71, 2-(3-((4-((5,6-dimethyl-[2,2′-bipyridin]-3-yl)oxy)pyridin-2-yl)amino)phenyl)-2-methylpropanoic acid]
- IC50: 140 nM
